In one data set the test system is OE21 cell. In words: Inhibition of cell proliferation, Cell-Titer-Glo, OE21. The data set is classed as cell-based, human. To be noted: conclusion. An excerpt:
Purpose of the assay: the inhibitory activity of the assay compounds on cell proliferation was detected. Principle of the assay: the luciferase in a Cell-Titer-Glo reagent produces oxidized luciferin with luciferin, oxygen and ATP as reaction substrates, and releases energy in the form of light. Since the luciferase reaction requires ATP, the total amount of light generated by the reaction is proportional to the total amount of ATP that reflects cell viability. Cell line: NCI-N87 cell line (ATCC-CRL-5822), BT-474 cell line (ATCC-HTB-20), OE21 (ECACC-96062201) Cell culture medium: […] L-[…]×, Gibco#25030-081; penicillin-streptomycin Hyclone# SV30010) Cell Titer-Glo® cell viability assay kit with luminescence (Promega #G7573) 384-well cell culture plate (Greiner # 781090) Compound plate (LABCYTE # LP-0200) CO2 incubator (Thermo#371) Vi-cell cell counter (Beckman Coulter) According to the schematic diagram of the cell seed plate, cells were seeded in a 384- or 96-well plate at a density of 1000 cells per well and 25 μL per well, and 25 μL of PBS was added to the wells near edge of the place where no cells were seeded. (1) The stock solution of the compounds has a concentration of 10 mM, and the compounds were diluted with DMSO to an initial concentration of 4 mM. […] After 10 minutes, the plate was read on PerkinElmer Envision, and the […] reading time was set to 0.2 second.

Data set [1] has as its system subcutaneous xenograft tumor of human esophageal carcinoma OE21 cells. Description: In vivo pharmacodynamics, OE21 subcutaneous xenograft (Assay Example 5). Further details: species or system mouse. How it is done: Purpose of the assay: in vivo efficacy of the assay compound on subcutaneous xenograft tumor of human esophageal carcinoma OE21 cells in a BALB/c nude mouse model was evaluated.
Animals of the assay: female BALB/c nude mice, 6-8 weeks old, weighted 17-23 grams; supplier: shanghai sippr bk laboratory animals Ltd.
Human esophageal carcinoma OE21 cells were cultured in monolayer in vitro. The culture conditions were RPMI-1640 medium plus 10% fetal bovine serum, 100 U/mL penicillin, 100 U/mL streptomycin and 2 mM glutamine, 37° C., 5% CO2. The passaging was performed by conventional digestion with trypsin-EDTA twice a week. When the cell saturation was 80%-90%, the cells were collected, counted and inoculated.
0.1 ml […] OE21 cells (PBS) were inoculated subcutaneously on the right back of each mouse. When the average tumor volume reached 112 mm^3, administration to each group was started.
The assay compound was formulated into a 0.15 mg/mL to 0.3 mg/mL clear or suspension solution in the solvents of 10% NMP+10% ethylene glycol stearate+80% water.
The assay index was to investigate whether tumor growth is inhibited, delayed or cured. Tumor diameter was measured twice a week with vernier caliper. The calculation formula of tumor volume was: V=0.5a×b^2, wherein a and b represent the long and short diameters of tumor, respectively.
The antitumor efficacy of the compounds was evaluated by TGI (%) or relative tumor proliferation rate T/C (%). TGI (%) reflects the tumor growth inhibition rate. TGI (%) was calculated as follows: TGI (%)=[(1−average tumor volume at the end of administration for a certain treatment group−average tumor volume at the beginning of administration for this treatment group))/(average tumor volume at the end of treatment for a vehicle control group−average tumor volume at the beginning of administration for this vehicle control group)]×100%.
Relative tumor proliferation rate T/C (%): the calculation formula was as follows: T/C (%)=average tumor volume at the end of administration for a certain treatment group/average tumor volume at the end of treatment for the vehicle control group×100%.
Statistical analysis included the mean and standard error of mean (SEM) of tumor volume at each time point in each group. One-way ANOVA was used for comparison among three or more groups. […] SPSS 17.0 was used for all data analysis. p<0.05 was considered a significant difference.

Each structure is given as a SMILES string.

Turning to `C=CC(=O)N1[C@@H]2CC[C@H]1C[C@H](Nc1cc3c(Nc4ccc(Cl)c(Cl)c4F)ncnc3cc1OC)C2` [Compound of formula (I)], the “inhibitory activity on the proliferation of OE21 cells (in words)” value in the data set with OE21 cell is recorded as “significant inhibitory activity”. Also, in data set [1] (2/1.5 mg/kg), the “body weight and clinical signs (in words)” value is “varying degrees of body weight loss and dandruff”. Moreover, the “tumor inhibitory effect (in words)” value in data set [1] (2/1.5 mg/kg, compared with the vehicle control group) is reported as “significant tumor inhibitory effect”. For the same molecule, the “Tumor volume (Day 21)” value in data set [1] (2/1.5 mg/kg, Day 21, Mean + SEM) is listed as 55 ± 13 mm3. For the same molecule, the “effect on the body weight of mice (in words)” value in data set [1] (discussion, high-dose group) is recorded as “little effect on the body weight of mice”. Besides, in data set [1] (low dose of 0.5 mpk), the “efficacy at low dose (in words)” value was “comparable to that of the reference compound Poziotnib and the compound of formula (I) at a high dose of 1.5 mpk”. Moreover, the “dark yellow urine, suggestion of toxicity (in words)” value in data set [1] (mouse, in vivo) is “without the toxicity suggestion of dark yellow urine”.

The record behind these values is patent US20220242851A1, “CRYSTAL FORM AND SALT OF QUINAZOLINE COMPOUND AND PREPARATION METHOD THEREOF” (SHENZHEN JINRUI FOUNDATION BIOTECH CO., LTD, priority 2019, published 2022).
